# Laboratory results published in patent US20170183297A1, “OMEGA-3 ANALOGUES” (The University of Sydney, priority 2014, published 2017).
# Tests used:
# MDA-MB-231 cells = test: Matrigel migration assay; assay type: cell-based, Human; details: 1, 5 and 10 μM, 24 h; P<0.01; FIG. 4
# Description: Human MDA-MB-231, MDA-MB-468 and T-47D breast cancer cells were obtained from the American Type Culture Collection (ATCC; Manassas, Va., USA). Cells were plated on 96-well microplates at a density of 1×10^4 cells per well for MTT, ATP, Caspase and JC-1 assays. Cells were maintained in Dulbecco's Modified Eagle's Medium (DMEM; Invitrogen, Carlsbad, Calif., USA) supplemented with 10% (w/v) fetal bovine serum (Hyclone, Salt Lake City, Utah, USA), 100 U/mL penicillin, and 100 μg/mL streptomycin (Invitrogen). All of the cells were incubated at 37° C. in a humidified atmosphere of 95% air and 5% CO2. Confluent cells (80-90%) were washed in phosphate-buffered saline, harvested using Trypsin/EDTA, and counted using trypan blue exclusion in a Countess Automated Cell Counter (Invitrogen) before passaging or use in assays.
# MDA-MB-231 cells were trypsinized and resuspended in serum-free DMEM media (3.5×10^6 cells/mL). The cell suspension was mixed 1:1 with Matrigel solution (Bio Scientific; Kirrawee, NSW, Australia). Aliquots (20 μL containing 3.5×10^4 cells) were placed into 6-well tissue-culture dishes to form well-defined droplets and incubated at 37° C. for 5 min to enable semi-solidification. Migration media was freshly made as DMEM containing 20% fetal bovine serum, epidermal growth factor 10 pg/mL, hydrocortisone 0.4 ng/mL, vascular endothelial growth factor (VEGF, 1 pg/mL), basic fibroblast growth factor (bFGF, 20 pg/mL), insulin-like growth factor-1 (40 pg/mL), ascorbic acid (2 ng/mL) and heparin (45 ng/mL). Compounds were added in migration media (3 mL/well) and plates were then incubated for 24 h. Cells that migrated out of droplets were scored using phase-contrast microscopy and digital image analysis (Olympus).
# [1] = system: human MDA-MB-231 breast cancer cell xenografts; test: Dose-response effects on breast tumour growth in nude mice with MDA-MB-231 xenografts (37 days IP); assay type: in vivo, mouse (nu/nu Balb/c, female); details: for Average tumour volumes / Final tumour weight at day 37: mean ± SEM, n = 5; for tumour suppression (overall statement): all doses (2.5, 10, 40 mg/kg)
# Description: Dose-response effects of compounds CP01 and CP03 on breast tumour growth in nude mice with human MDA-MB-231 breast cancer cell xenografts (subcutaneous injection in mammary fat pad)
# 5 weeks old when ordered, 6 weeks old when xenografted.
# human MDA-MB-231 cells, 4×10^5 cells/100 μL (Matrigel:PBS 1:1)/mouse, subcutaneous injection into the third mammary fat pad.
# 7 groups, 5 mice in each group. After the cell injection, 7 cages were randomly divided into 7 groups following the average mouse body weight of mice each cage. • Control • CP01-2.5 mg/kg • CP01-10 mg/kg • CP01-40 mg/kg • CP03-2.5 mg/kg • CP03-10 mg/kg • CP03-40 mg/kg
# Solid CP01 or CP03 powder was dissolved in DMSO at 40° C. to a final concentration of 400 mg/mL.
# (§1) After 4 days of cancer cell xenografting, IP administration of compounds CP01 or CP03 was started (2.5, 10 and 40 mg/kg). Compounds were diluted in corn oil containing 4% DMSO. Injection volume was 50 μL each mouse with a 20-gram body weight. IP injections were administered once a day for six days per week for a total of 37 days in duration. In a further study (see below), different doses of CP01, CP03 and CP05 were administered to nude mice carrying MDA-MB-231 xenografts (FIGS. 11, 12 and 13, respectively). The endpoint in this experiment was tumour volume and the experiments were conducted for 32 days.
# (§2) Body weights were recorded six days per week and tumour sizes were measured with a pair of caliper, every three to four days.
# [2] = Mouse body weight growth in control and treated groups; assay type: in vivo; details: IP 2.5, 10 and 40 mg/kg, 37 days; for body weight growth of treated mice compared with control group: once a day six days per week
# Description: The weight range at the start of IP treatments was from 13.1 g to 18.1 g at Day 1 and increased to a range of 17.1 g to 21.3 g at Day 37.
# as §1, §2
Compound,migration of MDA-MB-231 cells out of matrigel droplets (MDA-MB-231 cells),"Average tumour volumes ([1]; 2.5 mg/kg IP, Day 8) [mm^3]","Average tumour volumes ([1]; 2.5 mg/kg IP, Day 11)","Average tumour volumes ([1]; 2.5 mg/kg IP, Day 15) [mm^3]","Average tumour volumes ([1]; 2.5 mg/kg IP, Day 18) [mm^3]","Average tumour volumes ([1]; 2.5 mg/kg IP, Day 21) [mm^3]","Average tumour volumes ([1]; 2.5 mg/kg IP, Day 25) [mm^3]","Average tumour volumes ([1]; 2.5 mg/kg IP, Day 29) [mm^3]","Average tumour volumes ([1]; 2.5 mg/kg IP, Day 32) [mm^3]","Average tumour volumes ([1]; 2.5 mg/kg IP, Day 35)","Average tumour volumes ([1]; 2.5 mg/kg IP, Day 37) [mm^3]",Final tumour weight at day 37 ([1]; 2.5 mg/kg IP) [g],"Average tumour volumes ([1]; 10 mg/kg IP, Day 8) [mm^3]","Average tumour volumes ([1]; 10 mg/kg IP, Day 11) [mm^3]","Average tumour volumes ([1]; 10 mg/kg IP, Day 15) [mm^3]","Average tumour volumes ([1]; 10 mg/kg IP, Day 18) [mm^3]","Average tumour volumes ([1]; 10 mg/kg IP, Day 21) [mm^3]","Average tumour volumes ([1]; 10 mg/kg IP, Day 25) [mm^3]","Average tumour volumes ([1]; 10 mg/kg IP, Day 29) [mm^3]","Average tumour volumes ([1]; 10 mg/kg IP, Day 32) [mm^3]",further results
Cc1ccc(NC(=O)NCCCCCCCCCCCCCSCC(=O)O)cc1 [CP04],all decreases significant,–,–,–,–,–,–,–,–,–,–,–,–,–,–,–,–,–,–,–,–
"O=C(O)CSCCCCCCCCCCCCCNC(=O)Nc1ccc(Cl)c(C(F)(F)F)c1 [CP03, {[13-({[4-Chloro-3-(trifluoromethyl)phenyl]carbamoyl}amino)tridecyl]sulfanyl}acetic acid]",–,8.8 ± 1.4,10.7 ± 1.3 mm^3,14.5 ± 0.9,18 ± 1.6,23 ± 2.8,29.5 ± 6,45.4 ± 9.5,60.9 ± 13.7,80.4 ± 21^ mm^3,106.7 ± 29.4,0.09 ± 0.03,11.3 ± 2.9,10.9 ± 1.5,16.5 ± 2.8,19.3 ± 2.1,17.1 ± 2.9,23.1 ± 5,29 ± 7.5,39.3 ± 12.9,"Average tumour volumes ([1]; 10 mg/kg IP, Day 35): 50.3 ± 21.2 mm^3; Average tumour volumes ([1]; 10 mg/kg IP, Day 37): 67.3 ± 33.3 mm^3; Final tumour weight at day 37 ([1]; 10 mg/kg IP): 0.06 ± 0.03 g; Average tumour volumes ([1]; 40 mg/kg IP, Day 8): 13.4 ± 2.3 mm^3; Average tumour volumes ([1]; 40 mg/kg IP, Day 11): 12.5 ± 2^ mm^3; Average tumour volumes ([1]; 40 mg/kg IP, Day 15): 17.2 ± 1.9 mm^3; Average tumour volumes ([1]; 40 mg/kg IP, Day 18): 24.4 ± 5.5 mm^3; Average tumour volumes ([1]; 40 mg/kg IP, Day 21): 24 ± 5.2 mm^3; Average tumour volumes ([1]; 40 mg/kg IP, Day 25): 35.7 ± 10.7 mm^3; Average tumour volumes ([1]; 40 mg/kg IP, Day 29): 46.3 ± 16.7 mm^3; Average tumour volumes ([1]; 40 mg/kg IP, Day 32): 65.7 ± 23^ mm^3; Average tumour volumes ([1]; 40 mg/kg IP, Day 35): 96.1 ± 33.8 mm^3; Average tumour volumes ([1]; 40 mg/kg IP, Day 37): 118.9 ± 44.7 mm^3; Final tumour weight at day 37 ([1]; 40 mg/kg IP): 0.09 ± 0.04 g; tumour suppression (overall statement) [1]: strong trends toward tumour suppression at all doses; reduction in tumour size (suppression of tumour growth) ([1]; dose 2.5 mg/kg): 44%; reduction in tumour size (suppression of tumour growth) ([1]; dose 10 mg/kg): 65%; reduction in tumour size (suppression of tumour growth) ([1]; dose 40 mg/kg): 38%; evidence of toxicity (from body weight) [2]: no evidence of toxicity; body weight growth of treated mice compared with control group [2]: no significant difference"
"Cc1ccc(NC(=O)NCCCSCCCCCCCCCCCC(=O)O)cc1 [CP02, 12-[(3-{[(4-Methylphenyl)carbamoyl]amino}propyl)sulfanyl]dodecanoic acid]",all decreases significant,–,–,–,–,–,–,–,–,–,–,–,–,–,–,–,–,–,–,–,–
"O=C(O)CCCCCCCCCCCSCCCNC(=O)Nc1ccc(Cl)c(C(F)(F)F)c1 [CP01, 12-{[3-({[4-Chloro-3-(trifluoromethyl)phenyl]carbamoyl}amino)propyl]sulfanyl}dodecanoic acid]",–,12.5 ± 1.9,10.5 ± 1^ mm^3,10 ± 2.9,12.2 ± 3.2,16.9 ± 4.4,23.9 ± 6.1,29.3 ± 7.4,52.1 ± 15,67.7 ± 17.1 mm^3,78.7 ± 19.8,0.05 ± 0.01,15 ± 2.4,15.6 ± 1.8,16.5 ± 2.8,22 ± 4.5,26.4 ± 4.5,33.6 ± 6.2,45.2 ± 11.2,67.5 ± 19.3,"Average tumour volumes ([1]; 10 mg/kg IP, Day 35): 85.7 ± 25.3 mm^3; Average tumour volumes ([1]; 10 mg/kg IP, Day 37): 116.5 ± 37.6 mm^3; Final tumour weight at day 37 ([1]; 10 mg/kg IP): 0.08 ± 0.03 g; Average tumour volumes ([1]; 40 mg/kg IP, Day 8): 11 ± 1.3 mm^3; Average tumour volumes ([1]; 40 mg/kg IP, Day 11): 13.6 ± 2^ mm^3; Average tumour volumes ([1]; 40 mg/kg IP, Day 15): 14.7 ± 0.7 mm^3; Average tumour volumes ([1]; 40 mg/kg IP, Day 18): 23.6 ± 2.7 mm^3; Average tumour volumes ([1]; 40 mg/kg IP, Day 21): 26.3 ± 6^ mm^3; Average tumour volumes ([1]; 40 mg/kg IP, Day 25): 35.9 ± 13.4 mm^3; Average tumour volumes ([1]; 40 mg/kg IP, Day 29): 47.8 ± 17^ mm^3; Average tumour volumes ([1]; 40 mg/kg IP, Day 32): 67.8 ± 26 mm^3; Average tumour volumes ([1]; 40 mg/kg IP, Day 35): 116.6 ± 40.7 mm^3; Average tumour volumes ([1]; 40 mg/kg IP, Day 37): 132.8 ± 50.9 mm^3; Final tumour weight at day 37 ([1]; 40 mg/kg IP): 0.11 ± 0.05 g; tumour suppression (overall statement) [1]: strong trends toward tumour suppression at all doses; reduction in tumour size (suppression of tumour growth) ([1]; dose 2.5 mg/kg): 59%; reduction in tumour size (suppression of tumour growth) ([1]; dose 10 mg/kg): 39%; reduction in tumour size (suppression of tumour growth) ([1]; dose 40 mg/kg): 30%; evidence of toxicity (from body weight) [2]: no evidence of toxicity; body weight growth of treated mice compared with control group [2]: no significant difference"
"Cc1ccc(NC(=O)NCCCSCCCCCCCCCSCC(=O)O)cc1 [CP06, ({9-[(3-{[(4-Methylphenyl)carbamoyl]amino}propyl)sulfanyl]nonyl}sulfanyl)acetic acid]",all decreases significant,–,–,–,–,–,–,–,–,–,–,–,–,–,–,–,–,–,–,–,–
